Measured values taken from patent US11478478B2, “2,3-disubstituted 1-acyl-4-amino-1,2,3,4-tetrahydroquinoline derivatives and their use as bromodomain inhibitors” (GLAXOSMITHKLINE INTELLECTUAL PROPERTY (NO.2) LIMITED, priority 2013, dated 2022).
Where a name gives a salt, the structure may show the parent alone.

Target: T1, BRD4 BD2 (Homo sapiens, UniProt O60885, Y97A)
T1 construct: BRD4 (1-477) (Y97A) and (Y390A); made in house; host or cells: E. coli (pET15b vector)
Assay: TR-FRET binding assay, BRD4 BD2 (BD1-mutated protein)
Settings: read-out: pIC50 in the BRD4 BD2 assay (converted)
Protocol: Time Resolved Fluorescence Resonance Energy Transfer (TR-FRET) Assay Binding was assessed using a time resolved fluorescent resonance energy transfer binding assay. This utilises a 6 His purification tag at the N-terminal of the proteins as an epitope for an anti-6 His antibody labeled with Europium chelate (PerkinElmer AD0111) allowing binding of the Europium to the proteins which acts as the donor fluorophore. A small molecule, high affinity binder of the bromodomains BRD2, BRD3, BRD4 and BRDT has been labeled with Alexa Fluor647 (Reference Compound X) and this acts as the acceptor in the FRET pair.
In the absence of a competing compound, excitation of the Europium causes the donor to emit at λ618 nm which excites the Alexa labelled bromodomain binding compound leading to an increased energy transfer that is measurable at λ647 nM. In the presence of a sufficient concentration of a compound that can bind these proteins, the interaction is disrupted leading to a quantifiable drop in fluorescent resonance energy transfer.
The binding of the compounds of formula (I) to Bromodomains BRD2, BRD3, BRD4 and BRDT was assessed using mutated proteins to detect differential binding to either Binding Domain 1 (BD1) or Binding Domain 2 (BD2) on the bromodomain. These single residue mutations in the acetyl lysine binding pocket greatly lower the affinity of the fluoroligand (Reference Compound X) for the mutated domain (>1000 fold selective for the non-mutated domain). Therefore in the final assay conditions, binding of the fluoroligand to the mutated domain cannot be detected and subsequently the assay is suitable to determine the binding of compounds to the single non-mutated bromodomain.
Recombinant Human Bromodomains [(BRD2 (1-473) (Y113A) and (Y386A), BRD3 (1-435) (Y73A) and (Y348A) BRD4 (1-477) (Y97A) and (Y390A) and BRDT (1-397) (Y66A) and (Y309A)] were expressed in E. coli cells (in pET15b vector for BRD2/3/4 and in pET28a vector for BRDT) with a 6-His tag at the N-terminal. The His-tagged Bromodomain pellet was resuspended in 50 mM HEPES (pH7.5), 300 mM NaCl, 10 mM imidazole & 1 μl/ml protease inhibitor cocktail and extracted from the E. coli cells using sonication and purified using a nickel sepharose high performance column, the proteins were washed and then eluted with a linear gradient of 0-500 mM imidazole with buffer 50 mM HEPES (pH7.5), 150 mM NaCl, 500 mM imidazole, over 20 column volumes. Final purification was completed by Superdex 200 prep grade size exclusion column. Purified protein was stored at −80° C. in 20 mM HEPES pH 7.5 and 100 mM NaCl. Protein identity was confirmed by peptide mass fingerprinting and predicted molecular weight confirmed by mass spectrometry.
All assay components were dissolved in buffer composition of 50 mM HEPES pH7.4, 50 mM NaCl, 5% Glycerol, 1 mM DTT and 1 mM CHAPS. The final concentration of bromodomain proteins were 10 nM and the Alexa Fluor647 ligand was at Kd. These components were premixed and 5 μl of this reaction mixture was added to all wells containing 50 nl of various concentrations of test compound or DMSO vehicle (0.5% DMSO final) in Greiner 384 well black low volume microtitre plates and incubated in dark for 30 minutes at rt. 5 μl of detection mixture containing 1.5 nM final concentration anti-6His Europium chelate was added to all wells and a further dark incubation of at least 30 minutes was performed. Plates were then read on the Envision platereader, (λex=317 nm, donor λem=615 nm; acceptor λem=665 nm; Dichroic LANCE dual). Time resolved fluorescent intensity measurements were made at both emission wavelengths and the ratio of acceptor/donor was calculated and used for data analysis. All data was normalized to the mean of 16 high (inhibitor control—Example 11 of WO 2011/054846A1) and 16 low (DMSO) control wells on each plate. A four parameter curve fit of the following form was then applied: y=a+((b−a)/(1+(10^/10^)^d) […]

SMILES | IC50
CCNC(=O)c1ccc2c(c1)[C@H](Nc1cccc(C)n1)[C@@H](C)[C@H](CC)N2C(C)=O (racemic) [Example 279, rac-(2S,3R,4R)-1-acetyl-N,2-diethyl-3-methyl-4-((6-methylpyridin-2-yl)amino)-1,2,3,4-tetrahydroquinoline-6-carboxamide] | 100 nM
CC(=O)N1c2ccc(C3=CCNCC3)cc2[C@H](Nc2ccc(C#N)cc2)[C@@H](C)[C@@H]1C1CC1 (racemic) [Example 192, rac-4-(((2S,3R,4R)-1-acetyl-2-cyclopropyl-3-methyl-6-(1,2,3,6-tetrahydropyridin-4-yl)-1,2,3,4-tetrahydroquinolin-4-yl)amino)benzonitrile] | 100 nM
CC(=O)N1c2ccc(C(=O)NCCO)cc2[C@H](Nc2ncc(F)c(C)n2)[C@@H](C)[C@@H]1C [Example 430, (2S,3R,4R)-1-acetyl-4-((5-fluoro-4-methylpyrimidin-2-yl)amino)-N-(2-hydroxyethyl)-2,3-dimethyl-1,2,3,4-tetrahydroquinoline-6-carboxamide] | 100 nM
CC(=O)N1c2ccc(N3CCC(N)CC3)cc2[C@H](Nc2ccccc2)[C@@H](C)[C@@H]1C (racemic) [Example 74, rac-1-((2S,3R,4R)-6-(4-aminopiperidin-1-yl)-2,3-dimethyl-4-(phenylamino)-3,4-dihydroquinolin-1(2H)-yl)ethanone, hydrochloride] | 100 nM
CC(=O)N1c2ccccc2[C@H](Nc2cccc(CN)c2)[C@@H](C)[C@@H]1C1CC1 (racemic) [Example 124, rac-1-((2S,3R,4R)-4-((3-(aminomethyl)phenyl)amino)-2-cyclopropyl-3-methyl-3,4-dihydroquinolin-1(2H)-yl)ethanone, hydrochloride] | 100 nM
CC(=O)N1c2ccccc2[C@H](Nc2ccsc2)[C@@H](C)[C@@H]1C (racemic) [Example 12, rac-1-((2S,3R,4R)-2,3-dimethyl-4-(thiophen-3-ylamino)-3,4-dihydroquinolin-1(2H)-yl)ethanone] | 100 nM
COc1ccc(N[C@H]2c3ccccc3N(C(C)=O)[C@@H](C)[C@@H]2C)cc1 (racemic) [Example 15, rac-1-((2S,3R,4R)-4-((4-methoxyphenyl)amino)-2,3-dimethyl-3,4-dihydroquinolin-1(2H)-yl)ethanone] | 100 nM
CC(=O)N1c2ccc(C(N)=O)cc2[C@H](Nc2nccc(C)n2)[C@@H](C)[C@@H]1C1CC1 [Example 291, (2S,3R,4R)-1-acetyl-2-cyclopropyl-3-methyl-4-((4-methylpyrimidin-2-yl)amino)-1,2,3,4-tetrahydroquinoline-6-carboxamide] | 100 nM
CC(=O)N1c2ccc(F)cc2[C@H](Nc2ccc(C#N)cn2)[C@@H](C)[C@@H]1C (racemic) [Example 143, rac-6-(((2S,3R,4R)-1-acetyl-6-fluoro-2,3-dimethyl-1,2,3,4-tetrahydroquinolin-4-yl)amino)nicotinonitrile] | 100 nM
CC(=O)N1c2ccc(F)cc2[C@H](Nc2ccc(C(N)=O)cn2)[C@@H](C)[C@@H]1C1CC1 [Example 522, 6-(((2S,3R,4R)-1-acetyl-2-cyclopropyl-6-fluoro-3-methyl-1,2,3,4-tetrahydroquinolin-4-yl)amino)nicotinamide] | 1000 to 100000 nM
CC(=O)N1c2ccccc2[C@H](Nc2ccnc(C)c2)[C@@H](C)[C@@H]1C (racemic) [Example 23, rac-1-((2S,3R,4R)-2,3-dimethyl-4-((2-methylpyridin-4-yl)amino)-3,4-dihydroquinolin-1(2H)-yl)ethanone] | 1000 to 100000 nM
CC[C@@H]1[C@@H](C)[C@H](Nc2ccc(C#N)cc2)c2cc(F)ccc2N1C(C)=O (single isomer, unassigned) [Example 147b] | 100 nM
CC[C@@H]1[C@@H](C)[C@H](Nc2cccc(C)n2)c2cc(C(=O)NC)ccc2N1C(C)=O (racemic) [Example 235, rac-(2S,3R,4R)-1-acetyl-2-ethyl-N,3-dimethyl-4-((6-methylpyridin-2-yl)amino)-1,2,3,4-tetrahydroquinoline-6-carboxamide] | 100 nM
CC(=O)N1c2ccc(F)cc2[C@H](Nc2cc(O)ccn2)[C@@H](C)[C@@H]1C1CC1 [Example 532, 1-((2S,3R,4R)-2-cyclopropyl-6-fluoro-4-((4-hydroxypyridin-2-yl)amino)-3-methyl-3,4-dihydroquinolin-1(2H)-yl)ethanone] | 1000 to 100000 nM
CC(=O)N1c2ccc(N3CCCC3C)cc2[C@H](Nc2ccccc2)[C@@H](C)[C@@H]1C (mixture of isomers) [Example 81, 1-((rac-2S,3R,4R)-2,3-dimethyl-6-(2-methylpyrrolidin-1-yl)-4-(phenylamino)-3,4-dihydroquinolin-1(2H)-yl)ethanone] | 100 nM
CC(=O)N1c2ccccc2[C@H](Oc2ccccc2)[C@@H](C)[C@@H]1C1CC1 (racemic) [Example 119, rac-1-((2S,3S,4R)-2-cyclopropyl-3-methyl-4-phenoxy-3,4-dihydroquinolin-1(2H)-yl)ethanone] | 100 nM
CC(=O)N1c2ccc(C(N)=O)cc2[C@H](Nc2nccc(N(C)C)n2)[C@@H](C)[C@@H]1C1CC1 [Example 387, (2S,3R,4R)-1-acetyl-2-cyclopropyl-4-((4-(dimethylamino)pyrimidin-2-yl)amino)-3-methyl-1,2,3,4-tetrahydroquinoline-6-carboxamide] | 1000 to 100000 nM
CC(=O)N1c2ccc(F)cc2[C@H](Nc2cccnc2C#N)[C@@H](C)[C@@H]1C1CC1 [Example 503, 3-(((2S,3R,4R)-1-acetyl-2-cyclopropyl-6-fluoro-3-methyl-1,2,3,4-tetrahydroquinolin-4-yl)amino)picolinonitrile] | 1000 to 100000 nM
CC(=O)N1c2ccc(C(N)=O)cc2[C@H](Nc2nccc(C(C)C)n2)[C@@H](C)[C@@H]1C1CC1 [Example 411, (2S,3R,4R)-1-acetyl-2-cyclopropyl-4-((4-isopropylpyrimidin-2-yl)amino)-3-methyl-1,2,3,4-tetrahydroquinoline-6-carboxamide] | 100 nM
CC(=O)N1c2ccc(N3CCNCC3)cc2[C@H](Nc2ccccc2)[C@@H](C)[C@@H]1C1CC1 (racemic) [Example 94, rac-1-((2S,3R,4R)-2-cyclopropyl-3-methyl-4-(phenylamino)-6-(piperazin-1-yl)-3,4-dihydroquinolin-1(2H)-yl)ethanone, hydrochloride] | 100 nM
CC(=O)N1c2ccc(C(N)=O)cc2[C@H](Nc2ncccc2C(N)=O)[C@@H](C)[C@@H]1C1CC1 [Example 418, (2S,3R,4R)-1-acetyl-4-((3-carbamoylpyridin-2-yl)amino)-2-cyclopropyl-3-methyl-1,2,3,4-tetrahydroquinoline-6-carboxamide] | 100 nM
CC(=O)N1c2ccc(C#N)cc2[C@H](Nc2cccc(OCCN)n2)[C@@H](C)[C@@H]1C1CC1 [Example 318, (2S,3R,4R)-1-acetyl-4-((6-(2-aminoethoxy)pyridin-2-yl)amino)-2-cyclopropyl-3-methyl-1,2,3,4-tetrahydroquinoline-6-carbonitrile] | 100 nM
COc1ccc2c(n1)[C@H](Nc1cccc(C)n1)[C@@H](C)[C@H](C1CC1)N2C(C)=O (racemic) [Example 111, rac-1-((2S,3R,4R)-2-cyclopropyl-6-methoxy-3-methyl-4-((6-methylpyridin-2-yl)amino)-3,4-dihydro-1,5-naphthyridin-1(2H)-yl)ethanone] | 1000 to 100000 nM
